This note sets out measurements from paper PMC10096180, “Half-Sandwich Type Platinum-Group Metal Complexes of C-Glucosaminyl Azines: Synthesis and Antineoplastic and Antimicrobial Activities” (Molecules, 2023).

For orientation: MIC means the lowest concentration that inhibits growth of the organism. For orientation: IC50 means the concentration at which inhibition is half-maximal.

Experiment [1] deals with vancomycin-resistant Enterococcus (VRE) clinical isolates. The experiment can be described thus: Broth microdilution MIC, clinical VRE isolates. It counts as cell-based, E. faecium. As to conditions: 24 h, 0.08–40 μM. The procedure, abridged:
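S. aureus and E. faecium clinical isolates (Debrecen, 2018–2020; MALDI-TOF-identified) tested by EUCAST broth microdilution in Mueller–Hinton broth at 5.0 × 10^5 CFU/mL across 0.08–40 μM (twofold). After 24 h at 37 °C, visually read; MIC is the lowest concentration giving ≥50% inhibition versus growth control. At least two runs in duplicate.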
A general note: Broth dilution looks for growth in wells or tubes with falling amounts of substance.

In experiment [2] the test system is A2780 cells. Kind of experiment: SRB binding assay, cytostasis, 48 h treatment. It counts as cell-based. The procedure, abridged:
(§1)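 Ovarian cancer A2780 cells and primary human dermal fibroblasts treated 48 h, TCA-fixed, SRB-stained, absorbance at 540 nm relative to vehicle. IC50 from four-parameter fit when a plateau was reached or inhibition exceeded 90%; otherwise percent inhibition at 100 μM.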
In general terms: In SRB staining, fixed cells bind dye roughly in proportion to their protein.

Experiment [3] has as its target primary human dermal fibroblasts. The experiment can be described thus: SRB binding assay, cytostasis, 48 h treatment. It counts as cell-based. The following applies: read-out: Fibroblast SRB IC50. A digest of the protocol: as §1

Molecules are shown by their SMILES. Where two headings read alike, the source gives them in different places.

On to `Cc1ccc(C(C)C)cc1.F[P-](F)(F)(F)(F)F.N[C@@H]1[C@@H](OCc2ccccc2)[C@H](OCc2ccccc2)[C@@H](COCc2ccccc2)O[C@H]1c1ccccn1.[Cl][Ru+]` [Ru-3a], for which the MIC was determined as 5 µM in experiment [1] (clinical isolate 25,051 VRE, read-out: MIC 25,051 VRE); 5 µM in experiment [1] (clinical isolate 25,498 VRE, read-out: MIC 25,498 VRE); 5 µM in experiment [1] (clinical isolate 27,085 VRE, read-out: MIC 27,085 VRE). For the same molecule, the IC50 in experiment [2] was 1860 nM; in experiment [3], 9.62 µM. In addition, the “A2780 SRB Max Inhibition” value in experiment [2] (up to 100 μM, ND = not detectable) is over 90%.
